Laboratory results from patent publication US9765061B2, “Trail enhancers for the selective killing of cancer cells” (The Scripps Research Institute, priority 2013, dated 2017).

Tests used:
[1] = system: sXBP1 (UPR); test: sXBP1 generation in mouse lung after administration; type: in vivo; details: administration into mouse lung, FIG. 1F
Source text: FIG. 1: C12 induces the UPR in mammalian cells. (A and B). Comparison of the macrophage responsiveness to P. aeruginosa (P.a.), S. typhimurium (S.t), and S. aureus (S.a.). RT-PCR assay of XBP1 (A) and Western blot analysis (B) of p38, its phosphorylated form (p-p38) as well as phosphorylated forms of PERK (p-PERK) and eIF2α (p-eIF2α) in cell extracts after treatment with bacteria are shown. (C) Macrophages were stimulated with P. aeruginosa wild type (wt) or lasI mutant (ΔlasI), and cell extracts (total RNA or total protein) were prepared and analyzed as in (A and B). (D and E) RT-PCR assay of XBP1 or actin in total RNA prepared from macrophages after treatment with compound (C12), i.e., the (S)-enantiomer, or with the (R)-enantiomer (C12R), or the hydrolysis product (C12h) are shown. (F) Total RNA was prepared from lung of mice after inoculation of vehicle (-) or (C12) and analyzed in (D). (G) Chemical structures of compounds (C12), (C12R) and (C12h). Compound (C12) is the (S)-enaniiomer of the compound of formula: […]
Importantly, the similar requirements in the structural integrity of the lactone ring motif were also evident in response to other natural stereoisomer of the AHL family (Table 1). […]

[2] = system: normal human bronchial epithelial cells (NHBE); test: PARP cleavage in normal human bronchial epithelial cells; type: cell-based; details: FIG. 3D
Protocol: (§1) FIG. 3: Sensitivity of cancerous and non-cancerous cells to apoptosis induced by TNF, C12 or a combination of C12 and TNF. Cells were incubated with TNF, (C12) or a combination of TNF and (C12) as indicated, and the cleavage of PARP (an apoptotic marker) was determined by Western blot. (A and B) Breast cancer MCF-7 cells transfected with control vector (Vector) and vector expressing Bcl-2 or CLARP. (C) HeLa cell line. (D) Normal human bronchial epithelial cells (NHBE).
(§2) Similar experiments were conducted by using normal human bronchial epithelial cells and HeLa cell line as an example of transformed cells. We observed that both HeLa and normal cells were resistant to pro-apoptotic effects of TNF (FIG. 3C and 3D). […] In addition, two stimuli—C12 and TNF—work synergistically against cancerous cells, although normal cells stay intact.
Cancer and normal cell culture. Lung cancer cell line A549 and colon cancer cell line HT29 were purchased from ATCC. Breast cancer cell line MDA-MB-468 was received from J. C. Reed (The Burnham Institute, La Jolla, Calif.). […]
Antibodies and Western blot analysis. […] Cellular extracts were prepared and analyzed by Western blot assay as previously described.^E3

[3] = system: HeLa cell line; test: PARP cleavage in HeLa cells; type: cell-based, human; details: FIG. 3C
Protocol: as §1, §2
Antibodies and Western blot analysis. Anti-eIF2α, phospho-eIF2α[…](p-eIF2α), p38, p-p38 (Thr180/Tyr132), p-RelA (Ser536), p-I κB ? 32/36), PARP 20 antibodies were purchased from Cell Signaling; anti-RelA, I κB α, IκBβ were from Santa Cruz Biotechnology. Cellular extracts were prepared and analyzed by Western blot assay as previously described.^E3

CCCCCCCCCC(=O)CC(=O)N[C@H]1CCOC1=O [Compound 1, N-(3-oxo-dodecanoyl) homoserine lactone]
generation of sXBP1 in lung [1]: resulted in the generation of sXBP1 | apoptosis (PARP cleavage), compound alone and in combination with TNF [2]: showed resistance | cleavage of PARP, compound alone [3]: induced the cleavage of PARP
